Test results reported in patent publication US8119681B2, “2-[1-phenyl-5-hydroxy or methoxy-4alpha-methyl-hexahydrocyclopenta [ƒ]indazole-5-YL]ethyl phenyl derivatives as glucocorticoid receptor ligands” (Merck Sharp & Dohme Corp., priority 2006, dated 2012).

What follows are compounds tested against T1, human GR (Homo sapiens, UniProt P04150) (assay: Transrepression Assay (GITAR), TNFα-β-lactamase reporter gene in U937 cells). Details: U-937, read-out: maximal activity in the transrepression assay.
T1 sequence (P04150 1-777): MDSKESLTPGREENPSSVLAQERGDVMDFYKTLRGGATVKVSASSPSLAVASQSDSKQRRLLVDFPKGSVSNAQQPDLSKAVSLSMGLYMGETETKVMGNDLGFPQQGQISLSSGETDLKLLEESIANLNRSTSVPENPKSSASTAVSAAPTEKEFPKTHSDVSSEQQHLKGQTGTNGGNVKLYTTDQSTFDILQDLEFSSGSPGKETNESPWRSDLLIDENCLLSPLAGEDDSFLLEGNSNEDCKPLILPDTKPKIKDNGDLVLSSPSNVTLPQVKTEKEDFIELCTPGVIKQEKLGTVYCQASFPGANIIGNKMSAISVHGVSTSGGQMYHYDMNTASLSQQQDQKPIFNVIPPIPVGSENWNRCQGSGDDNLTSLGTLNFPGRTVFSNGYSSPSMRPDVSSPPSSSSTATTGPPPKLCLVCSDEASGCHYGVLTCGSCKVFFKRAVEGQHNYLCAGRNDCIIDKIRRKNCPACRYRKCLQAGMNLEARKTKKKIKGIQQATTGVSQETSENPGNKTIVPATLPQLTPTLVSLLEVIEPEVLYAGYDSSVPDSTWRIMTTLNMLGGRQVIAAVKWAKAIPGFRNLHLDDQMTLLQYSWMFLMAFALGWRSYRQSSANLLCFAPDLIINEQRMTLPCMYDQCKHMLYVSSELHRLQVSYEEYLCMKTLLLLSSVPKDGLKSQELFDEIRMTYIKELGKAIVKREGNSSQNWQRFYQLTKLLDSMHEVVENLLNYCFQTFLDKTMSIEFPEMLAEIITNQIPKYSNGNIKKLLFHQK
Assay type: cell-based
Design: U937 cells contain an endogenous glucocorticoid receptor (GR); endogenous in cells; host or cells: U937 cells stably transfected with the TNF-α promoter/β-lactamase reporter only
In short: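 Reporter readout used CCF2-AM loading for 70–90 min at room temperature after overnight (~18 h, 37 °C) PMA (5 ng/ml final) and LPS (100 ng/ml final) stimulation of compound-treated (30–45 min) TNFα-β-lactamase U937 cells expressing native GR. Activity was normalised to 100 nM dexamethasone repression.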
For CC(C)NC(=O)Oc1ccccc1CC[C@]1(O)CCC2=Cc3c(cnn3-c3ccc(F)cc3)C[C@@]21C [Example 136, 2-{2-[(4αS,5R)-1-(4-fluorophenyl)-5-hydroxy-4α-methyl-1,4,4α,5,6,7-hexahydrocyclopenta[f]indazol-5-yl]ethyl}phenyl isopropylcarbamate], the Emax was 5 to 100%.
With C[C@]12Cc3cnn(-c4ccc(F)cc4)c3C=C1CC[C@@]2(O)CCc1ccccc1CO [Example 149, (4αS,5R)-1-(4-fluorophenyl)-5-{2-[2-(hydroxymethyl)phenyl]ethyl}-4α-methyl-1,4,4α,5,6,7-hexahydrocyclopenta[f]indazol-5-ol] the Emax was 5 to 100%.

Same assay, conditions: U-937; 100 nM dexamethasone = 100% activity; read-out: maximal activity in the transrepression assay
Work on CCNC(=O)Nc1c(F)cccc1CC[C@]1(O)CCC2=Cc3c(cnn3-c3ccc(F)cc3)C[C@@]21C [Example 132, N-ethyl-N′-(2-fluoro-6-{2-[(4αS,5R)-1-(4-fluorophenyl)-5-hydroxy-4α-methyl-1,4,4α,5,6,7-hexahydrocyclopenta[f]indazol-5-yl]ethyl}phenyl)urea] yielded an Emax of 5 to 100%.
For CC(C)NC(=O)Nc1ccc(F)cc1CC[C@]1(O)CCC2=Cc3c(cnn3-c3ccc(F)cc3)C[C@@]21C [Example 133, N-(4-fluoro-2-{2-[(4αS,5R)-1-(4-fluorophenyl)-5-hydroxy-4α-methyl-1,4,4α,5,6,7-hexahydrocyclopenta[f]indazol-5-yl]ethyl}phenyl)-N′-isopropylurea], the Emax was 5 to 100%.
In the case of COC(=O)Oc1ccccc1CC[C@]1(O)CCC2=Cc3c(cnn3-c3ccc(F)cc3)C[C@@]21C [Example 135, 2-{2-[(4αS,5R)-1-(4-fluorophenyl)-5-hydroxy-4α-methyl-1,4,4α,5,6,7-hexahydrocyclopenta[f]indazol-5-yl]ethyl}phenyl methyl carbonate], the Emax is reported as 5 to 100%.
CCNS(=O)(=O)c1ccccc1CC[C@]1(O)CCC2=Cc3c(cnn3-c3ccc(F)cc3)C[C@@]21C [Example 137, N-ethyl-2-{2-[(4αS,5R)-1-(4-fluorophenyl)-5-hydroxy-4α-methyl-1,4,4α,5,6,7-hexahydrocyclopenta[f]indazol-5-yl]ethyl}benzenesulfonamide] showed an Emax of 5 to 100%.
Work on CNS(=O)(=O)c1ccccc1CC[C@]1(O)CCC2=Cc3c(cnn3-c3ccc(F)cc3)C[C@@]21C [Example 139, 2-{2-[(4αS,5R)-1-(4-fluorophenyl)-5-hydroxy-4α-methyl-1,4,4α,5,6,7-hexahydrocyclopenta[f]indazol-5-yl]ethyl}-N-methylbenzenesulfonamide] yielded an Emax of 5 to 100%.
Compound C[C@]12Cc3cnn(-c4cccc(F)c4)c3C=C1CC[C@@]2(O)CCc1ccccc1S(N)(=O)=O [Example 140, 2-{2-[(4αS,5R)-1-(3-fluorophenyl)-5-hydroxy-4α-methyl-1,4,4α,5,6,7-hexahydrocyclopenta[f]indazol-5-yl]ethyl}benzenesulfonamide] has an Emax of 5 to 100%.
In the case of C[C@]12Cc3cnn(-c4ccccc4)c3C=C1CC[C@@]2(O)CCc1ccccc1S(N)(=O)=O [Example 141, 2-{2-[(4αS,5R)-5-hydroxy-4α-methyl-1-phenyl-1,4,4α,5,6,7-hexahydrocyclopenta[f]indazol-5-yl]ethyl}benzenesulfonamide], the Emax is reported as 5 to 100%.
C[C@]12Cc3cnn(-c4ccc(F)c(F)c4)c3C=C1CC[C@@]2(O)CCc1ccccc1S(N)(=O)=O [Example 142, 2-{2-[(4αS,5R)-1-(3,4-difluorophenyl)-5-hydroxy-4α-methyl-1,4,4α,5,6,7-hexahydrocyclopenta[f]indazol-5-yl]ethyl}benzenesulfonamide] showed an Emax of 5 to 100%.
C[C@]12Cc3cnn(-c4ccc(F)cc4)c3C=C1CC[C@@]2(O)CCc1cccc(F)c1C#N [Example 145, 2-fluoro-6-{2-[(4αS,5R)-1-(4-fluorophenyl)-5-hydroxy-4α-methyl-1,4,4α,5,6,7-hexahydrocyclopenta[f]indazol-5-yl]ethyl}benzonitrile] showed an Emax of 5 to 100%.
Work on C[C@]12Cc3cnn(-c4ccc(F)cc4)c3C=C1CC[C@@]2(O)CCc1cc(F)ccc1C#N [Example 146, 4-fluoro-2-{2-[(4αS,5R)-1-(4-fluorophenyl)-5-hydroxy-4α-methyl-1,4,4α,5,6,7-hexahydrocyclopenta[f]indazol-5-yl]ethyl}benzonitrile] yielded an Emax of 5 to 100%.
Compound C[C@]12Cc3cnn(-c4ccc(F)cc4)c3C=C1CC[C@@]2(O)CCc1ccccc1-c1ccc[nH]1 [Example 147, (4αS,5R)-1-(4-fluorophenyl)-4α-methyl-5-{2-[2-(1H-pyrrol-2-yl)phenyl]ethyl}-1,4,4α,5,6,7-hexahydrocyclopenta[f]indazol-5-ol] has an Emax of 5 to 100%.
For C[C@]12Cc3cnn(-c4ccc(F)cc4)c3C=C1CC[C@@]2(O)CCc1cccc(F)c1CN [Example 153, (4αS,5R)-5-{2-[2-(aminomethyl)-3-fluorophenyl]ethyl}-1-(4-fluorophenyl)-4α-methyl-1,4,4α,5,6,7-hexahydrocyclopenta[f]indazol-5-ol], the Emax was 5 to 100%.
Work on C[C@]12Cc3cnn(-c4ccc(F)cc4)c3C=C1CC[C@@]2(O)CCc1cccc(F)c1C=O [Example 154, 2-fluoro-6-{2-[(4αS,5R)-1-(4-fluorophenyl)-5-hydroxy-4α-methyl-1,4,4α,5,6,7-hexahydrocyclopenta[f]indazol-5-yl]ethyl}benzaldehyde] yielded an Emax of 5 to 100%.
For C[C@]12Cc3cnn(-c4ccc(F)cc4)c3C=C1CC[C@@]2(O)CCc1cccc(F)c1C(=O)N1CC(=O)C1 [Example 155, 1-(2-fluoro-6-{2-[(4αS,5R)-1-(4-fluorophenyl)-5-hydroxy-4α-methyl-1,4,4α,5,6,7-hexahydrocyclopenta[f]indazol-5-yl]ethyl}benzoyl)azetidin-3-one], the Emax was 5 to 100%.
C[C@]12Cc3cnn(-c4ccc(F)cc4)c3C=C1CC[C@@]2(O)CCc1ccccc1-c1cscn1 [Example 158, (4αS,5R)-1-(4-fluorophenyl)-4α-methyl-5-{2-[2-[1,3-thiazol-4-yl)phenyl]ethyl}-1,4,4α,5,6,7-hexahydrocyclopenta[f]indazol-5-ol] gave an Emax of 5 to 100%.
Work on C[C@]12Cc3cnn(-c4ccc(F)cc4)c3C=C1CC[C@@]2(O)CCc1cc(C(F)(F)F)ccc1C#N [Example 161, 2-{2-[(4αS,5R)-1-(4-fluorophenyl)-5-hydroxy-4α-methyl-1,4,4α,5,6,7-hexahydrocyclopenta[f]indazol-5-yl]ethyl}-4-(trifluoromethyl)benzonitrile] yielded an Emax of 5 to 100%.
With Cc1ccc(C#N)c(CC[C@]2(O)CCC3=Cc4c(cnn4-c4ccc(F)cc4)C[C@@]32C)c1 [Example 162, 2-{2-[(4αS,5R)-1-(4-fluorophenyl)-5-hydroxy-4α-methyl-1,4,4α,5,6,7-hexahydrocyclopenta[f]indazol-5-yl]ethyl}-4-methylbenzonitrile] the Emax was 5 to 100%.
Work on C[C@]12Cc3cnn(-c4ccc(F)cc4)c3C=C1CC[C@@]2(O)CCc1ccc(C(F)(F)F)cc1C#N [Example 164, 2-{2-[(4αS,5R)-1-(4-fluorophenyl)-5-hydroxy-4α-methyl-1,4,4α,5,6,7-hexahydrocyclopenta[f]indazol-5-yl]ethyl}-5-(trifluoromethyl)benzonitrile] yielded an Emax of 5 to 100%.
Compound CO[C@@]1(CCc2ccccc2C(N)=O)CCC2=Cc3c(cnn3-c3ccc(F)cc3)C[C@@]21C [Example 165, 2-{2-[(4αS,5R)-1-(4-fluorophenyl)-5-methoxy-4α-methyl-1,4,4α,5,6,7-hexahydrocyclopenta[f]indazol-5-yl]ethyl}benzamide] has an Emax of 5 to 100%.
In the case of C[C@]12Cc3cnn(-c4ccc(F)cc4)c3C=C1CC[C@@]2(O)CCc1cc(F)ccc1C(N)=O [Example 166, 4-fluoro-2-{2-[(4αS,5R)-1-(4-fluorophenyl)-5-hydroxy-4α-methyl-1,4,4α,5,6,7-hexahydrocyclopenta[f]indazol-5-yl]ethyl}benzamide], the Emax is reported as 5 to 100%.
Work on C[C@]12Cc3cnn(-c4ccccc4)c3C=C1CC[C@@]2(O)CCc1cccc(F)c1C(N)=O [Example 167, 2-fluoro-6-{2-[(4αS,5R)-5-hydroxy-4α-methyl-1-phenyl-1,4,4α,5,6,7-hexahydrocyclopenta[f]indazol-5-yl]ethyl}benzamide] yielded an Emax of 5 to 100%.
C[C@]12Cc3cnn(-c4ccc(F)cc4)c3C=C1CC[C@@]2(O)CCc1cccc(Cl)c1C(N)=O [Example 169, 2-chloro-6-{2-[(4αS,5R)-1-(4-fluorophenyl)-5-hydroxy-4α-methyl-1,4,4α,5,6,7-hexahydrocyclopenta[f]indazol-5-yl]ethyl}benzamide] gave an Emax of 5 to 100%.
C[C@]12Cc3cnn(-c4ccc(F)cc4)c3C=C1CC[C@@]2(O)CCc1cc(Cl)ccc1C(N)=O [Example 171, 4-chloro-2-{2-[(4αS,5R)-1-(4-fluorophenyl)-5-hydroxy-4α-methyl-1,4,4α,5,6,7-hexahydrocyclopenta[f]indazol-5-yl]ethyl}benzamide] showed an Emax of 5 to 100%.
